Data on 1 compound can be found in ChEMBL document CHEMBL3886420, “Substituted pyrimidine compounds and their use as SYK inhibitors” (2015).

This assay has as its target Tyrosine-protein kinase SYK (Homo sapiens, UniProt P43405). Kind of assay: Inhibition Assay: Compounds of the invention were initially diluted to 10 mM in 100% DMSO (CALBIOCHEM) for storage and made into kinase buffer solution to create a compound concentration ranging from 1 uM and 10 uM. Serial dilutions of compounds of the invention were dispensed into a 96-well plate (GREINER BIOSCIENCES) at 6 uL each. Purified full-length human SYK (CARNA BIOSCIENCES) were diluted ….

The compound `CCOC(=O)n1cc(C(C)=O)c2cc(Nc3nccc(-n4cc(CN5C[C@H](O)CO5)c(C)n4)n3)ccc21` gave an IC50 of 45.6 nM.

The term IC50 denotes the concentration that gives 50% inhibition.
